Read-outs that look alike come from different tables or passages of the source.

One data set has as its system endogenous TFE3. Briefly: TFE3 nuclear translocation, immunocytochemistry high-content imaging. Type of data set: cell-based.
Data set [1] relates to SH-SY5Y cells. Briefly: Nuclear count from microscopy images (cellular growth and toxicity). Note: reference of the scale not given here.
The test system of data set [2] is SH-SY5Y cells.
From the text: The PKIS2 Library was supplied by The Structural Genomics Consortium at the University of North Carolina at Chapel Hill.
For another data set, the system named is endogenous TFEB. Briefly: TFEB nuclear translocation, immunocytochemistry high-content imaging. Type of data set: cell-based.
Data set [3] concerns SH-SY5Y cells. Description: AK (adenylate kinase) release ToxiLight cytotoxicity assay. Note: reference of the scale not given here.
Where [4] appears, read: PKIS2 primary screening, DQ Red BSA intensity.
The mark [5] stands for this setting: PKIS2 primary screening, DQ Red BSA spot count.
Throughout, for DQ Intensity: reference of the scale not given here.
Throughout, for DQ Spot: reference of the scale not given here.

Consider `Cc1ccc(NC(=O)Nc2ccccc2)cc1-c1ccc(C(=O)Nc2ccncc2)cc1` [UNC10224992A], for which, in the data set with endogenous TFE3 (PKIS2 primary screening), the TFE3 % is on record as 19.70%. Further, the “Nuclear Count” value in the data set on SH-SY5Y cells [1] (PKIS2 primary screening) was determined as 89.66. In addition, in the data set on SH-SY5Y cells [2] (PKIS2 primary screening), the “DQ Intensity” value stood at 74.41 and the “DQ Spot” value was found to be 94.75. The TFEB % with endogenous TFEB (PKIS2 primary screening) is 8.91%. The compound also yielded an AK in the data set with SH-SY5Y cells [3] (PKIS2 primary screening) of 119.72.
`COc1ccc(S(=O)(=O)NC2CCN(c3cc(C)nc(Nc4cccc(C#N)c4)n3)CC2)cc1` [GSK1653539]: the TFE3 % in the data set on endogenous TFE3 (PKIS2 primary screening) is 12.26%. Moreover, the “Nuclear Count” value with SH-SY5Y cells [1] (PKIS2 primary screening) came to 97.37. The “DQ Intensity” value with SH-SY5Y cells [2] (setting [4]) was determined as 59.46. In addition, the “DQ Spot” value with SH-SY5Y cells [2] (setting [5]) is recorded as 82.66. The same compound came in with a TFEB % in the data set with endogenous TFEB (PKIS2 primary screening) of 5.30%. In addition, the AK in the data set with SH-SY5Y cells [3] (PKIS2 primary screening) turned out to be 67.09.
As to `Nc1ncnc2[nH]c(-c3ccccc3)nc12` [UNC10243863A], in the data set on endogenous TFE3 (PKIS2 primary screening), the TFE3 % is recorded as 10.89%. Moreover, the “Nuclear Count” value with SH-SY5Y cells [1] (PKIS2 primary screening) was found to be 66.20. Further, in the data set on SH-SY5Y cells [2] (PKIS2 primary screening), the “DQ Intensity” value was 154.91 and the “DQ Spot” value came out at 119.26. Further, in the data set with endogenous TFEB (PKIS2 primary screening), the TFEB % was found to be 9.65%. Besides, in the data set with SH-SY5Y cells [3] (PKIS2 primary screening), the AK was 85.62.
Turning to `COc1cccc(CC(=O)N2CCc3cc(-c4cn(C)c5ncnc(N)c45)ccc32)c1` [UNC10224987A], the TFE3 % in the data set with endogenous TFE3 (PKIS2 primary screening) is reported as 10.50%. The “Nuclear Count” value in the data set on SH-SY5Y cells [1] (PKIS2 primary screening) was determined as 115.64. In addition, in the data set on SH-SY5Y cells [2] (PKIS2 primary screening), the “DQ Intensity” value was 104.40 and the “DQ Spot” value was determined as 98.28. This compound showed a TFEB % with endogenous TFEB (PKIS2 primary screening) of 11.97%. In the data set on SH-SY5Y cells [3] (PKIS2 primary screening), this compound returned an AK of 97.56.
On to `Cl.Oc1ccc(-c2nc(-c3ccccc3)[nH]c2-c2ccncc2)cc1` [UNC10225482A], for which, in the data set with endogenous TFE3 (PKIS2 primary screening), the TFE3 % amounted to 9.08%. Further, the “Nuclear Count” value in the data set with SH-SY5Y cells [1] (PKIS2 primary screening) is recorded as 92.35. Also, the “DQ Intensity” value with SH-SY5Y cells [2] (setting [4]) came out at 99.60. Moreover, in the data set with SH-SY5Y cells [2] (setting [5]), the “DQ Spot” value is given as 108.10. The same compound showed a TFEB % in the data set with endogenous TFEB (PKIS2 primary screening) of 7.63%. In addition, in the data set on SH-SY5Y cells [3] (PKIS2 primary screening), the AK stood at 90.33.
Consider `Nc1nc(-c2ccc3c(N)n[nH]c3c2)cc(N2CCCC(NC(=O)c3ccccc3)C2)n1` (stereo not drawn) [GSK2286775], for which the TFE3 % with endogenous TFE3 (PKIS2 primary screening) is 13.75%. The “Nuclear Count” value in the data set on SH-SY5Y cells [1] (PKIS2 primary screening) was determined as 104.24. Moreover, in the data set on SH-SY5Y cells [2] (setting [4]), the “DQ Intensity” value is 67.10. For the same compound, in the data set on SH-SY5Y cells [2] (setting [5]), the “DQ Spot” value is 83.48. Also, the TFEB % with endogenous TFEB (PKIS2 primary screening) turned out to be 4.25%. In the data set with SH-SY5Y cells [3] (PKIS2 primary screening), the AK is 119.49.
Compound `COc1ccccc1CNC(=O)c1cc(C(=O)c2ccccc2C)c[nH]1` [UNC10225294A] gave a TFE3 % with endogenous TFE3 (PKIS2 primary screen) of 19.95%. Further, in the data set on SH-SY5Y cells [1] (PKIS2 primary screen), the “Nuclear Count” value is recorded as 105.84. The “DQ Intensity” value with SH-SY5Y cells [2] (PKIS2 primary screen, DQ Red BSA intensity) stood at 126.95. Also, the “DQ Spot” value in the data set on SH-SY5Y cells [2] (PKIS2 primary screen, DQ Red BSA spot count) is recorded as 127.30. In the data set on endogenous TFEB (PKIS2 primary screen), this compound displayed a TFEB % of 4.46%. In addition, in the data set with SH-SY5Y cells [3] (PKIS2 primary screen), the AK was determined as 95.17.
The compound `COc1cc2ncnc(Nc3ccc(OCc4ccccc4Br)c(Cl)c3)c2cc1OC.Cl` [UNC10225261A] had a TFE3 % in the data set on endogenous TFE3 (PKIS2 primary screening) of 8.49%. The “Nuclear Count” value with SH-SY5Y cells [1] (PKIS2 primary screening) was determined as 123.73. Besides, the “DQ Intensity” value in the data set on SH-SY5Y cells [2] (setting [4]) is 96.30. The “DQ Spot” value with SH-SY5Y cells [2] (setting [5]) is on record as 117.72. The same compound displayed a TFEB % in the data set with endogenous TFEB (PKIS2 primary screening) of 4.00%. The AK in the data set with SH-SY5Y cells [3] (PKIS2 primary screening) was 120.37.
In the data set on endogenous TFE3 (PKIS2 primary screening), `CNc1cc(-c2ccc3c(N)n[nH]c3c2)nc(N)n1` [GSK2224810] gave a TFE3 % of 7.03%. For the same compound, the “Nuclear Count” value with SH-SY5Y cells [1] (PKIS2 primary screening) is 109.90. Besides, the “DQ Intensity” value with SH-SY5Y cells [2] (setting [4]) stood at 93.32. In addition, the “DQ Spot” value in the data set with SH-SY5Y cells [2] (setting [5]) is 95.12. In addition, in the data set with endogenous TFEB (PKIS2 primary screening), the TFEB % stood at 4.15%. Further, the AK in the data set with SH-SY5Y cells [3] (PKIS2 primary screening) is listed as 132.47.
`O=S(=O)(c1ccc(-c2ccnc3[nH]ccc23)cc1)N1CCCC1` [UNC10225462A]: the TFE3 % in the data set with endogenous TFE3 (PKIS2 primary screening) is given as 10.23%. Besides, in the data set on SH-SY5Y cells [1] (PKIS2 primary screening), the “Nuclear Count” value is reported as 103.12. Besides, the “DQ Intensity” value in the data set with SH-SY5Y cells [2] (setting [4]) is 72.77. Besides, the “DQ Spot” value in the data set with SH-SY5Y cells [2] (setting [5]) worked out at 93.44. The compound also returned a TFEB % in the data set on endogenous TFEB (PKIS2 primary screening) of 5.43%. Further, the AK in the data set on SH-SY5Y cells [3] (PKIS2 primary screening) is 140.08.
In turn, `Cl.c1ccc(Cn2ccc3cc(Nc4ncnc5ccccc45)ccc32)cc1` [UNC10225488A] returned a TFE3 % in the data set on endogenous TFE3 (PKIS2 primary screening) of 8.10%. Moreover, in the data set with SH-SY5Y cells [1] (PKIS2 primary screening), the “Nuclear Count” value worked out at 128.88. For the same compound, in the data set with SH-SY5Y cells [2] (setting [4]), the “DQ Intensity” value was found to be 101.44. The “DQ Spot” value in the data set on SH-SY5Y cells [2] (setting [5]) is listed as 98.20. Further, the TFEB % with endogenous TFEB (PKIS2 primary screening) was determined as 3.41%. Also, the AK with SH-SY5Y cells [3] (PKIS2 primary screening) was 113.68.
On to `COc1nccc(-c2c(-c3ccc(F)cc3)ncn2CCCN2CCOCC2)n1` [UNC10225213A], for which the TFE3 % in the data set with endogenous TFE3 (PKIS2 primary screening) was 16.14%. Also, the “Nuclear Count” value in the data set with SH-SY5Y cells [1] (PKIS2 primary screening) is 107.77. Besides, in the data set with SH-SY5Y cells [2] (PKIS2 primary screening), the “DQ Intensity” value was determined as 119.56 and the “DQ Spot” value is 105.70. For the same compound, the TFEB % in the data set on endogenous TFEB (PKIS2 primary screening) was 5.79%. This compound also gave an AK in the data set on SH-SY5Y cells [3] (PKIS2 primary screening) of 78.43.
In the data set on endogenous TFE3 (PKIS2 primary screening), `O=C(Nc1ccc2c(c1)OCO2)NC1CCN(c2ccnc(NCc3ccc(F)cc3)n2)CC1` [GSK1379859] displayed a TFE3 % of 12.41%. For the same compound, in the data set on SH-SY5Y cells [1] (PKIS2 primary screening), the “Nuclear Count” value came out at 98.68. The “DQ Intensity” value with SH-SY5Y cells [2] (setting [4]) was found to be 77.50. In addition, in the data set on SH-SY5Y cells [2] (setting [5]), the “DQ Spot” value is on record as 79.61. The compound further had a TFEB % in the data set on endogenous TFEB (PKIS2 primary screening) of 6.05%. Also, the AK in the data set on SH-SY5Y cells [3] (PKIS2 primary screening) was found to be 102.69.
In the data set with endogenous TFE3 (PKIS2 primary screening), `Cc1cc(-c2ccc3c(c2)CC[C@@H](N[C@@H](C)c2ccccc2)C3)cnc1N` [GW412617] showed a TFE3 % of 41.99%. For the same compound, the “Nuclear Count” value in the data set on SH-SY5Y cells [1] (PKIS2 primary screening) is 101.83. Moreover, the “DQ Intensity” value in the data set on SH-SY5Y cells [2] (setting [4]) worked out at 86.08. In addition, in the data set on SH-SY5Y cells [2] (setting [5]), the “DQ Spot” value was 45.16. The TFEB % in the data set with endogenous TFEB (PKIS2 primary screening) is on record as 15.77%. The compound further returned an AK in the data set with SH-SY5Y cells [3] (PKIS2 primary screening) of 35.11.

Values taken from paper PMC9851200, “Multiparameter phenotypic screening for endogenous TFEB and TFE3 translocation identifies novel chemical series modulating lysosome function” (Autophagy, 2022).
